Source: publication PMC3341351, “Down-Regulation of GABAA Receptor via Promiscuity with the Vasoactive Peptide Urotensin II Receptor. Potential Involvement in Astrocyte Plasticity” (PLoS ONE, 2012)

How the values were obtained:
γ2^HA GABAAR subunit = experiment: Cell surface ELISA of γ2^HA GABAAR subunit in CHO-UT^c-myc-α2β3γ2^HA; format: cell-based; conditions: hUII 10^−8 M, 30 min, 37°C, 5 to 7 independent experiments in triplicates
Method: Cells were plated at 50 000 cells/well in 96-well plates coated with 0.1 mg/ml poly-L-ornithine (Sigma-Aldrich). […] Cells were fixed with 4% PFA in PBS for 5 min at RT, washed in PBS, and then permeabilized in 0.05% triton X100 (only for permeabilized cells) and non specific binding were blocked with PBS containing 1% FBS for 30 min at RT. The first rat anti-HA monoclonal antibody (0.5 µg/ml, 3F10 clone, Roche, Meylan, France or 1 µg/ml, Santa-Cruz), mouse anti-c-myc monoclonal antibody (1.33 µg/ml, 9E10 clone, Roche), rabbit anti-UT antibody (1 µg/ml, Tebu, Santa-Cruz) or rabbit anti-β3 antibody (1∶200, Abcam, Paris, France), were added for 1 h30 at RT. Incubation with goat anti-rat (Thermo scientific, Fisher, Brebières, France), goat anti-mouse (Santa Cruz) or goat anti-rabbit (Tebu, Santa Cruz) conjugated alkaline phosphatase diluted at 1∶1000 in PBS/FBS was carried out for 30 min at RT. The cells were washed four times with PBS, a colorimetric alkaline phosphatase substrate was added (SuperSignal ELISA, Thermo scientific, Fisher) and the resulting color reaction was measured using a Viktor multilabel plate reader (PerkinElmer, Courtaboeuf, France). Background absorbance from samples transfected with non-tagged receptors or from cells without first antibodies were systematically measured. […] All experiments were done at least three times in triplicates.

[1] = test system: GABAAR co-expressed with UT^HA 370; experiment: Patch-clamp of Iso-evoked current in CHO co-expressing GABAAR and truncated UT^HA 370; format: cell-based; conditions: hUII 10^−8 M, 1 min, Iso 10^−4 M, 2 s
Description: For UT epitope-tagged with HA (UT^HA), or c-myc (UT^c-myc), human UT receptor cDNA inserted into pcDNA3.1 (Ressource Center, MI, USA) was amplified and PCR products were subcloned using the EcoRI and XhoI sites of pCMV-HA or pCMV-c-myc. Mutant UT receptor cDNAs were constructed by oligonucleotide-directed mutagenesis (Expand High Fidelity PCR System; Roche) using the human UT receptor cDNA inserted into pcDNA3.1 as a template. Two sets of forward and reverse oligonucleotides were used (Table S2) to introduce stop codons in frame of Leu370, Phe351, Gly332 and Thr319 (to generate UT371, UT351, UT332 and UT319, respectively). PCR products were subcloned using the EcoRI and XhoI sites of pCMV-HA after digestion by the same restriction enzymes. Mutagenesis was confirmed by automated nucleotide sequencing.
The conventional whole-cell configuration of the patch-clamp technique was used to study the GABA-gated currents in astrocytes and granule neurons, UT stably transfected CHO, CHO-UT, and CHO transiently transfected with diverse variants of UT and GABAAR subunits. After 24-h transfection, cell culture coverslips were placed in a small chamber (1.5 ml) on a stage of a right microscope DMLFSA (Leica, Heidelberg, Germany) and superfused continuously with the following bath solution containing (in mM): NaCl, 150; KCl, 2.5; HEPES, 5; CaCl2, 2; MgCl2, 1; glucose, 10 (pH 7.4 adjusted with NaOH). […]

Question: How did the “Loss of γ2^HA subunit from the cell surface” value (γ2^HA GABAAR subunit) turn out when “ETPDCFWKYCV (disulfide) [hUII, human urotensin II, synthesized by solid phase methodology]” was run?
Answer: approximately 40%

Question: What about the “hUII-induced fast short-term inhibition with UT^HA 370” value [1] of the same sequence?
Answer: totally abolished

Question: What about the “hUII-induced long-term inhibition with UT^HA 370” value ([1]; washout) of the same sequence?
Answer: delayed, and significantly altered
